Test results as given in patent US11078158B2, “(+)-3-(2,3-difluorophenyl)-3-methoxypyrrolidine or pharmaceutically acceptable salts thereof, a process for preparation thereof and uses thereof” (INTEGRATIVE RESEARCH LABORATORIES SWEDEN AB, priority 2017, dated 2021).

Assays:
[1] = Flask method water solubility test; assay type: physicochemical; details: saturated solution equilibrated at least 24 hours, room temperature
Experimental: In some cases, a further water solubility test (Flask method water solubility test) was performed as follows. An excess of salt was added to water. The mixture was equilibrated (shaking) for at least 24 hours thereby providing a saturated salt solution. Then the saturated solution was clear-filtered and transferred into a clean pre-weighed flask (mv). The mass of flask+saturated solution (mvs) was recorded. The solvent was evaporated under reduced pressure until constant mass. Flask containing dried residue was weighed (mvdr). The solubility expressed as “grams of solute/kg of solvent”, i.e. “grams of salt/kg of solvent”, was calculated according to the equation: […]
(mvdr-mv) is the weight difference in kg between (i) the mass of the flask containing dried residue after evaporation of the solvent and (ii) the mass of the flask, and
(mvs-mvdr) is the weight difference in kg between (i) the mass of the flask including the saturated salt solution and (ii) the mass of the flask containing the dried residue.

Hygroscopicity test = assay type: physicochemical; details: 30° C., one week; for hygroscopicity (in words): any tested relative humidity
Experimental: Hygroscopicity tests of the salts were performed by keeping exact weight samples of the different salts at varied humidity at 30° C. After one week, the samples were weighed again and based on the original weight the percentage weight difference was calculated.
In the followed hygroscopicity test, the change in weight was measured after each acidic salt of (+)-3-(2,3-difluorophenyl)-3-methoxypyrrolidine was exposed for a week under the condition of 30° C. and different relative humidities (RH) 0 to 97%.

[2] = Regular water solubility test; assay type: physicochemical; details: thermodynamic from solid, room temperature
Experimental: Water solubility tests for the salts as described herein were performed as follows unless otherwise stated. 0.05 g of each salt was weighed in a flask and the mass of flask+salt (m-vs) was recorded. Water was slowly added dropwise into the flask with salt until full dissolution was achieved as observed by the naked eye. The mass of flask+salt+solvent (m-sys) was recorded.
(s) stands for the weight of the salt measured in kg,
(m-sys) stands for the mass of the flask+salt+solvent measured in kg, and
(m-vs) stands for the mass of the flask+salt measured in kg.

[3] = Crystalline phase at tested relative humidity; assay type: physicochemical; details: any tested relative humidity
human sigma 1 receptor = target: T1, human sigma 1 receptor (Homo sapiens, UniProt Q99720); assay: In vitro competition binding assay, human sigma 1 receptor; details: 1.0 E-5 M test compound, 15 nM [3H] pentazocine, duplicate, mean value; read-out: Percent inhibition of the control radioligand specific binding
T1 construct: Cell membrane homogenates (150 μg protein) were incubated for 120 min at 37° C. with 15 nM; endogenous in cells; inferred to be Jurkat human T lymphocytes from the cited method (Ganapathy et al. 1999)
T1 sequence (Q99720 whole entry): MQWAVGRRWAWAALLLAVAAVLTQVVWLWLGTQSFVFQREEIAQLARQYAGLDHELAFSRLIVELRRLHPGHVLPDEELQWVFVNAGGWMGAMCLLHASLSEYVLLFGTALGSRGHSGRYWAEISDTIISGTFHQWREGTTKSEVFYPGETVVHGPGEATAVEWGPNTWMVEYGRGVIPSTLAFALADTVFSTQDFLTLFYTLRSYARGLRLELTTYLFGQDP
Experimental: The binding affinity of the fumaric acid salt of (+)-3-(2,3-difluorophenyl)-3-methoxypyrrolidine at the human sigma 1 receptor was determined by a competition binding assay similar to what is described in […], M. E., PRASAD, P. D., HUANG, W., SETH, P., LEIBACH, F. H. and […], V. (1999), Molecular and ligand-binding characterization of the σ-receptor in the Jurkat human T lymphocyte cell line, J. Pharmacol. Exp. Ther., 289: 251.
Cell membrane homogenates (150 μg protein) were incubated for 120 min at 37° C. with 15 nM [^3H] pentazocine in the absence or presence of the test compound in a buffer containing 50 mM Tris-HCl (pH 8).
Nonspecific binding was determined in the presence of 10 μM haloperidol.
Following incubation, the samples were filtered under vacuum through glass fiber filters (GF/B, Packard) presoaked with 0.3% PEI and rinsed several times with ice-cold 50 mM Tris-HCl using a 96-sample cell harvester (Unifilter, Packard). The filters were dried then counted for radioactivity in a scintillation counter (Topcount, Packard) using a scintillation cocktail (Microscint 0, Packard).
The results were expressed as a percent inhibition of the control radioligand specific binding.
The standard reference compound was haloperidol, which was tested in each experiment at several concentrations to obtain a competition curve from which its IC50 value was calculated. […]

| solubility ([1]; water, thermodynamic from solid) [mg/mL] | solubility [2] [mg/mL] | hygroscopicity (in words) (Hygroscopicity test; listed as salt of Formula IIb) | inhibition at 10 µM (human sigma 1 receptor) [%] | Compound | Solubility in water (Flask method water solubility test) [1] [mg/mL] | Weight difference (%) (Hygroscopicity test; relative humidity 0%) | Weight difference (%) (Hygroscopicity test; relative humidity 6%) | Weight difference (%) (Hygroscopicity test; relative humidity 11%) | Weight difference (%) (Hygroscopicity test; relative humidity 22%) | Weight difference (%) (Hygroscopicity test; relative humidity 32%) | Weight difference (%) (Hygroscopicity test; relative humidity 43%) | Weight difference (%) (Hygroscopicity test; relative humidity 56%) | Weight difference (%) (Hygroscopicity test; relative humidity 73%) | Weight difference (%) (Hygroscopicity test; relative humidity 84%) | Weight difference (%) (Hygroscopicity test; relative humidity 97%) | hygroscopicity (in words) (Hygroscopicity test; listed as Example 11) | change of crystalline phase with humidity (in words) [3] |
| --- | --- | --- | --- | --- | --- | --- | --- | --- | --- | --- | --- | --- | --- | --- | --- | --- | --- |
| – | – | – | – | COC1(c2cccc(F)c2F)CCNC1.O=C(O)C(=O)O (stereo not drawn) [Reference Example 19, oxalic Acid Salt of (+)-3-(2,3-difluorophenyl)-3-methoxypyrrolidine, reference compound] | 28 | 0.00 | 0.00 | −0.21 | 0.00 | 0.11 | −0.05 | 0.00 | −0.05 | −0.15 | 0.26 | – | – |
| 74.1 | 34 | not being hygroscopic | 79.1 | CO[C@]1(c2cccc(F)c2F)CCNC1.O=C(O)/C=C/C(=O)O [Example 7, fumarate Salt of (+)-3-(2,3-difluorophenyl)-3-methoxypyrrolidine] | – | −0.07 | −0.14 | 0.11 | 0.15 | 0.13 | 0.07 | 0.19 | 0.06 | 0.00 | 0.16 | does not adsorb or desorb water at any humidity | not changing in its crystalline phase at any tested relative humidity |
| – | – | – | – | COC1(c2cccc(F)c2F)CCNC1.O=C(O)C[C@H](O)C(=O)O [Example 13, L-Malic Acid Salt of (+)-3-(2,3-difluorophenyl)-3-methoxypyrrolidine] | – | −0.07 | 0.00 | −0.13 | −0.08 | 0.00 | −0.22 | −0.06 | 0.07 | 0.40 | 34.37 | – | – |
| – | – | – | – | COC1(c2cccc(F)c2F)CCNC1.Cl (stereo not drawn) [Example 8, Hydrochloric Acid Salt of (+)-3-(2,3-difluorophenyl)-3-methoxypyrrolidine] | – | 0.00 | −0.07 | −0.06 | −0.15 | 0.00 | −0.13 | −0.14 | −0.13 | 25.77 | 99.12 | – | – |
| – | – | – | – | COC1(c2cccc(F)c2F)CCNC1.O=C(O)C(O)C(O)C(=O)O [Example 9, L-Tartaric acid salt of (+)-3-(2,3-difluorophenyl)-3-methoxypyrrolidine] | – | −2.36 | −0.67 | −0.14 | 2.40 | 2.16 | 1.71 | 1.99 | 1.90 | 2.13 | 2.39 | – | – |
